# Assay results reported in ChEMBL document CHEMBL4476885, “Multisubstituted 4h-thiazolo[4,5-e][1,4]diazepine-5,8-dione derivative and use thereof” (2017).
# System: Mus musculus
# Assay: Antiinflammatory activity in iv dosed ICR mouse model of CLP-induced sepsis assessed as increase in survival rate
# Format: functional
row,SMILES,Activity
1,CCCSc1nc2c(s1)C(=O)N1CCCCC1C(=O)N2 (stereo not drawn),40%
2,CCN1C(=O)C2CCCN2C(=O)c2sc(NCc3ccc(OC)cc3)nc21 (stereo not drawn),40%
3,CN1C(=O)C2CCCCN2C(=O)c2sc(Sc3ccccc3)nc21 (stereo not drawn),60%
4,COc1ccc(CNc2nc3c(s2)C(=O)N(C)CC(=O)N3Cc2ccccc2)cc1,40%
5,O=C1C2CCCN2C(=O)c2sc(N3CCCCC3)nc2N1Cc1ccccc1 (stereo not drawn),40%
6,CCCCNc1nc2c(s1)C(=O)N(Cc1ccccc1)CC(=O)N2,40%
7,O=C1Nc2nc(N3CCOCC3)sc2C(=O)N2CCCC12 (stereo not drawn),40%
8,COc1ccc(CNc2nc3c(s2)C(=O)N2CCCC2C(=O)N3)cc1 (stereo not drawn),40%
